According to patent US20100004316A1, “MULTIFUNCTIONAL CARRIERS FOR THE DELIVERY OF NUCLEIC ACIDS AND METHODS OF USE THEREOF” (UNIVERSITY OF UTAH RESEARCH FOUNDATION, priority 2006, published 2010):

Assays:
[1] = system: U87-Luc cells; test: Luciferase gene silencing with anti-luciferase siRNA in U87-Luc cells; format: cell-based
Procedure: THCO-mediated delivery of siRNA targeting a luciferase reporter gene. U87-Luc cells were seeded 24 hours prior to transfection into a 96-well plate at a density of 5000 cells/well. At the time of siRNA transfection, the medium in each well was replaced with fresh serum-free medium. 20 nM anti-luciferase siRNA or non-specific siRNA was complexed with THCO or Transfast™ or DOTAP and incubated for 30 min before use. The transfection by Transfast or DOTAP was performed according to the manufacture's instruction. Complexes were incubated with the cells for 4 hours at 37° C. The medium was then replaced with 100 μL of fresh complete medium and cells were incubated for additional 44 hours. All the transfection tests were performed in triplicate wells. After the incubation, cells were washed with pre-warmed PBS and treated with 200 μL cell lysis buffer and then subjected to a freezing-thawing cycle. Cellular debris was removed by centrifugation at 14,000 g for 5 minutes. The luciferase activity in cell lysate (20 μL) was measured using a luciferase assay kit (100 μL luciferase assay buffer) on a luminometer for 10 seconds (Lumat 9605, EG&G Wallac). The gene silencing efficiency was normalized against the luciferase expression of untreated cells. The siRNA delivery efficiency was also similarly evaluated in 10% FBS medium.
G. In vitro delivery of nucleic acids by MFCs MFC-mediated in vitro gene silencing with siRNA. U87-luc cells with constitutive expression of firefly luciferase were maintained in minimal essential medium (ATCC) containing 10% FBS, G418 (300 μg/mL), streptomycin (100 μg/mL) and penicillin (100 units/mL). U87-Luc cells were seeded 24 hours prior to transfection into a 96-well plate at a density of 5000 cells/well. At the time of siRNA transfection, the medium in each well was replaced with fresh serum-free medium. Anti-luciferase siRNA was complexed with the MFC, TransFast or DOTAP and incubated for 30 min before use. Complexes were incubated with the cells for 4 hours at 37° C. The medium was then replaced with 100 μL of fresh complete medium and cells were incubated for an additional 44 hours. The cells were then washed with pre-warmed PBS, treated with 200 μL cell lysis buffer and subjected to a freezing-thawing cycle. Cellular debris was removed by centrifugation at 14,000 g for 5 minutes. The luciferase activity in cell lysate (20 μL) was measured using a luciferase assay kit (100 μL luciferase assay buffer) on a luminometer for 10 seconds (Lumat 9605, EG&G Wallac). The gene silencing efficiency was normalized against the luciferase expression of untreated cells.

[2] = system: rat red blood cells; test: Hemolysis assay at different pHs; format: cell-based; details: for hemolytic activity: 8.3 μM; for hemolysis: pH 7.4, 6.5 and 5.4 (all cases)
Procedure: Hemolysis assay. THCO (16.7 μM), DOTAP (16.7 μM) and Triton X-100 (1%, w/v) were dissolved in phosphate buffered saline (PBS) at a starting pH of 7.4, 6.5, or 5.4 as stock solutions. A rat was sacrificed and blood was obtained by cardiac puncture. Erythrocytes (RBC) were isolated by centrifugation at 1500 g for 10 min at 4° C. The cell pellet was resuspended into a 2% (w/v) RBC solution with prechilled PBS and then seeded (100 μL) into a 96-well plate. 100 μL of testing samples were added to RBC solutions and the plate was incubated for 1 h at 37° C. The absorbance of the supernatant from each sample was measured at 550 nm using a micro-plate reader.
Hemolysis assay. The assays were performed using the techniques described above. The pH sensitive amphiphilic cell membrane disruption of the MFCs was evaluated by hemolysis assay with rat red blood cells at different pHs. […] Generally, all MFCs had lower hemolytic activity at pH 7.4 than at pH 6.5 and 5.4.

[3] = system: U87-Luc cells; test: Cytotoxicity of MFC/siRNA complexes (MTT); format: cell-based; details: siRNA complexes, 100 nM siRNA
Procedure: Cytotoxicity of MFC/siRNA complexes. U87-luc cells were incubated with MFC/siRNA complexes of different carriers according to the protocol described above. MTT in PBS (5 mg/mL, 25 μL) was added to each well after incubation and cells were incubated for another 2 hours. After cell culture medium was removed, 200 μL DMSO was added to each well and cells were incubated at 37° C. for 5 min. The optical absorption was measured at 570 nm using a micro-plate reader (Model 550, Bio-Rad Lab. Hercules, Calif.). The relative cell viability was calculated with the equation ([Abs]sample-[Abs]blank)/([Abs]control-[Abs]blank)×100%.

[4] = system: U87-luc xenograft; test: In vivo luciferase knockdown with anti-luc siRNA complexes, bioluminescence imaging; set-up: species or system mice; details: 50 μg anti-luciferase siRNA i.p.
Procedure: Animal tumor model. U87 cells with stably expression of luciferase were collected and resuspended with medium/matrigel mixture (v/v=l/l). 100 μL of cell suspension containing 2 million cells were injected subcutaneously in the right flanks of the mice.
Carriers. EHCO was selected for the study. DOTAP is a commercial available transfection agent that has been used to deliver siRNA in vivo and was used as a control carrier. siRNAs. Anti-Luciferase siRNA was used to knockdown luciferase expression in mice so as to noninvasively detect gene silencing efficiency by bioluminescence imaging. […] The sequence of antisense is 5′-[…]dTdT-3′ and that of sense is 3′-dTd[…]-5′. siRNA targeting HIF was provided Huntsman Cancer Institute, University of Utah. The sequence of antisense is 5′-[…]dTdT-3′ and that of sense is 3′-dTdT […]-5′.
Administration of Anti-Luc siRNA complexes and Luciferase mouse imaging. Bioluminescence imaging of mice were taken one day before the administration of the anti-luciferase complexes. […] Images were quantified using LivingImage software (Xenogen). […] The luminescence signal intensity on the day before the mice received the anti-luc complexes were set as 100% and the subsequent luciferase expression level in mice after siRNA treatments were normalized to the percentage relative to those at day 0.

[5] = Particle size of MFC/siRNA complexes by dynamic light scattering
Procedure: Particle Size Analysis. Samples were prepared by mixing 5.0 μg of plasmid DNA or siRNA with appropriate amount of materials in dust-free water and analyzed using a Brookhaven Instruments BI-200SM system equipped with a 5 mW helium neon laser with a wavelength output of 633 nm. The effective diameter and population distribution were computed from the diffusion coefficient using functions supplied by the instrument. Measurements were made at 25° C. at an angle of 90° and each sample was analyzed in triplicate.
Formation and size measurement of MFC/siRNA nanoparticles. MFC/siRNA nanoparticulate complexes were prepared and characterized using the techniques described above. The complexation of the polymerizable MFCs with siRNA and formation of nanoparticles of the complexes were investigated by dynamic light scattering. EHCO was first used to study the complexation with siRNA and the impact of N/P ratios on the complexation and formation of nanoparticles. […] The particle size of siRNA complexes with other polymerizable surfactants was measured at the N/P ratios of 8 and 10 based on the observation with EHCO.

[6] = system: U87 cells; test: MTT cytotoxicity assay in U87 cells; format: cell-based; details: concentration of 250 μg/mL, 24 h
Procedure: In another study, U87 cells were seeded in a 96-well plate 24 h before the assay at a density of 10,000 cells/well. The cells were incubated with 200 μL of medium containing THCO at different concentrations and incubate for 24 h. Then 25 μL MTT solution in PBS was added and cells were incubated for another 2 hours. After removing media, 200 μL of DMSO was added to the wells and cells were incubated at 37° C. for 5 min. The optical densities were measured at 570 nm using a micro-plate reader (Model 550, Bio-Rad Lab. Hercules, Calif.). The relative cell viability was calculated as described above. […] The viability of U87 cells incubated with THCO was 79±8% at a concentration of 250 μg/mL as determined the MTT assay, slightly higher than that of DOTAP (72±4%) (FIG. 8).

Compound	luciferase silencing (transfection) efficiency ([1]; 20 nM siRNA, MFCs at N/P ratio of 10, FIG. 21b) [%]	knockdown of luciferase expression ([1]; 100 nM siRNA, MFCs at N/P ratio of 10, FIG. 21a) [%]	hemolytic activity ([2]; pH 6.5, PBS)	hemolytic activity ([2]; pH 7.4, PBS)	cell viability [3] [%]	reduction of luciferase expression in the tumor ([4]; after two treatments)	particle size of siRNA complexes (diameter) ([5]; N/P ratio of 0.5, incubated 30 minutes)	particle size of siRNA complexes ([5]; N/P ratio of 4)	particle size of siRNA complexes ([5]; N/P ratio of 6)	particle size of siRNA complexes (diameter) ([5]; N/P ratio of 8, dust free water)	particle size of siRNA complexes ([5]; N/P ratio of 10) [nm]	viability of U87 cells [6] [%]	gene silencing efficiency ([1]; 20 nM siRNA, serum free medium, THCO N/P=8, FIG. 12) [%]	gene silencing efficiency ([1]; 20 nM siRNA, serum-free medium, THCO at N/P ratios from 4 to 16) [%]	hemolysis [2]	effect on luciferase expression in the tumor ([4]; two treatments)
CCCCCCCCC=CCCCCCCCC(=O)NC(CS)C(=O)NC(Cc1cnc[nH]1)C(=O)NCCNC(=O)CCN(CCN)CCC(=O)NCCNC(=O)C(Cc1cnc[nH]1)NC(=O)C(CS)NC(=O)CCCCCCCC=CCCCCCCCC (centres unmarked) [EHCO, (1-aminoethyl)imino-bis[N-(oleicyl-cysteinyl-histinyl-1-aminoethyl)propion-amide]]	74.5±1.0	88.4±3.1	negligible hemolysis	negligible hemolysis	86.7±8.3	more than 50%	approximately 200 nm	about 3 μm	approximately 240 nm	approximately 200 nm	~151	–	–	–	–	–
N-(2,3-dioleoyloxy-1-propyl)trimethylammonium methyl sulfate [DOTAP, reference compound]	–	–	–	–	–	–	–	–	–	–	–	72±4	47.1±3.8	47	Little hemolysis	did not have significant effect after the second treatment
Triton X-100 [reference compound]	–	–	–	–	–	–	–	–	–	–	–	–	–	–	complete hemolysis	–
